# Biological target: T1, full-length ATR (Homo sapiens, UniProt Q13535)
# T1 construct: Assays were carried out at 25° C. in the presence of 5 nM full-length ATR
# Test: ATR Inhibition Assay (radioactive-phosphate incorporation)
# Assay type: biochemical
# Conditions: not given
# T1 sequence (Q13535 whole entry): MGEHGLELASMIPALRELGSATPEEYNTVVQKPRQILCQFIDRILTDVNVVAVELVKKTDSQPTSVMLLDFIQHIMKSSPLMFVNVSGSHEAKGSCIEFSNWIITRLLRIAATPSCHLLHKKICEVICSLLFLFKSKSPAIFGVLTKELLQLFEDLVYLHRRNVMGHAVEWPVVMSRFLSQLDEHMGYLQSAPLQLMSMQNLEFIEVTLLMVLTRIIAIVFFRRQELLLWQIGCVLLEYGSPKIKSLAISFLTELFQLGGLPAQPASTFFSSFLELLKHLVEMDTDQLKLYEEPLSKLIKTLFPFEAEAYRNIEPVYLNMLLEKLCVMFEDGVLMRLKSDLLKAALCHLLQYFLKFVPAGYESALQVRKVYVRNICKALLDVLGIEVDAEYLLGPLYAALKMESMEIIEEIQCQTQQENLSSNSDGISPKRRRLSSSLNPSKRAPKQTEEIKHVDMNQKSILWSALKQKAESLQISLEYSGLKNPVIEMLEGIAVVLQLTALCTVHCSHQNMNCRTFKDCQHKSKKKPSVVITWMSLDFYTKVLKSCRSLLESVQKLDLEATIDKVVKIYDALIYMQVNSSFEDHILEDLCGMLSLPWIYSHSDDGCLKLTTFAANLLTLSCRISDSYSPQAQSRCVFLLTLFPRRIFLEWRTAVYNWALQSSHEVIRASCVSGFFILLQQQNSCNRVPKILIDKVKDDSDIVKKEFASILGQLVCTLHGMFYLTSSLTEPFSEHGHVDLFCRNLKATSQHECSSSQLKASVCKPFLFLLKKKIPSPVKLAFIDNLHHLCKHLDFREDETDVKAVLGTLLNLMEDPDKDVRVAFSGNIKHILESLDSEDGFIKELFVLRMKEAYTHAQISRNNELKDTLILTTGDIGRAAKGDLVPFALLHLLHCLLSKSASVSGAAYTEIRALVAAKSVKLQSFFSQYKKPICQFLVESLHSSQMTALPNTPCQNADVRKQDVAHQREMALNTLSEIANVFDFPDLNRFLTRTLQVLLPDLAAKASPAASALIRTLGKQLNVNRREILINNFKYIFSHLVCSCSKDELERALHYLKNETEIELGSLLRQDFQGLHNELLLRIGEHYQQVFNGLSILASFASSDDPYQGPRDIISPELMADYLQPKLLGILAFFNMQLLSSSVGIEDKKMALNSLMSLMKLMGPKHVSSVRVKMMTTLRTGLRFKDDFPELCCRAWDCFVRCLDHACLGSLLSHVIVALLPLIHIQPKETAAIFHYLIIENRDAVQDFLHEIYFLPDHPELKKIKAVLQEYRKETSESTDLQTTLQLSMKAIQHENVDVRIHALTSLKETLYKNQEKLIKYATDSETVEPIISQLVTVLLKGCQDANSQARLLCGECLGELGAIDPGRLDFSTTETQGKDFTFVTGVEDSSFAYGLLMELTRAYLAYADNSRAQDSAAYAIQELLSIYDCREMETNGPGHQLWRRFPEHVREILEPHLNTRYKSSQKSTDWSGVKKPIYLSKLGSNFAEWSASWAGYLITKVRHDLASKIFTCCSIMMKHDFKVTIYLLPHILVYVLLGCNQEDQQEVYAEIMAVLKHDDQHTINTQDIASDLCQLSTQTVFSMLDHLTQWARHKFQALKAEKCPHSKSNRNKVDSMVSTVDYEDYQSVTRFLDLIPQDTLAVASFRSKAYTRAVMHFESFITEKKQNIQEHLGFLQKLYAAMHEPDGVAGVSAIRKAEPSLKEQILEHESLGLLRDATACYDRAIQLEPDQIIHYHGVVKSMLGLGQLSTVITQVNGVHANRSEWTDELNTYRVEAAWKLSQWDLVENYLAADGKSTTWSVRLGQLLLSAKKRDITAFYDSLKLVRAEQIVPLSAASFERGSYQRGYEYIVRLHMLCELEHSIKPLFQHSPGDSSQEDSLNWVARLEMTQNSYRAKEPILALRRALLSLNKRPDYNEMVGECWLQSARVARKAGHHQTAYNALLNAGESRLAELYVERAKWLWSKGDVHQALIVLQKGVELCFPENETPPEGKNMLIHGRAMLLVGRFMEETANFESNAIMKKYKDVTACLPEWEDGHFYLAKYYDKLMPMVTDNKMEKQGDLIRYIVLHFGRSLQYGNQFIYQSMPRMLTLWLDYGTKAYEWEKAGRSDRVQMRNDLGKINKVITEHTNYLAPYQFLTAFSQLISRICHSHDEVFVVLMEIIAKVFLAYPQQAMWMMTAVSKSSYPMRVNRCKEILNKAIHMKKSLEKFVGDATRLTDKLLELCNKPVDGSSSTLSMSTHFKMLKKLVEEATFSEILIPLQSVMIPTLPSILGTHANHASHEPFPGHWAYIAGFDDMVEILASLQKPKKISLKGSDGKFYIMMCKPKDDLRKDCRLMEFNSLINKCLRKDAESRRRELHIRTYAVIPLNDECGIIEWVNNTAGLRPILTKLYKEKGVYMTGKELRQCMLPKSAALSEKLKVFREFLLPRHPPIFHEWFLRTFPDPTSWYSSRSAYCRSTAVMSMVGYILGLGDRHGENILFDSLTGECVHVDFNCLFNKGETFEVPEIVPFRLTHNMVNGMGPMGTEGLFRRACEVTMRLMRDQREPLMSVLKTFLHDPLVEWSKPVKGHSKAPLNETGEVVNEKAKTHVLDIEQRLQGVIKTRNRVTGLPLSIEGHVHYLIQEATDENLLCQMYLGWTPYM
row,Ki [nM],Structure (SMILES)
1,< 1,CC(C)(C#N)c1cc(-c2cnc(N)c(-c3nnc(-c4ccc(NCCN5CCOCC5)cc4)o3)n2)ccn1 [Compound I-116]
2,< 1,CC(C)(C#N)c1cc(-c2cnc(N)c(-c3nnc(-c4ccc(CNC5CCCOC5)cc4)o3)n2)ccn1 (stereo not shown) [Compound I-122]
3,< 1,CC(C)(C#N)c1cc(-c2cnc(N)c(-c3nnc(-c4ccc5c(c4)CNCC5)o3)n2)ccn1 [Compound I-55]
4,< 1,CC(C)(C#N)c1cc(-c2cnc(N)c(-c3nnc(-c4ccc(N5CCNCC5)cc4)o3)n2)ccn1 [Compound I-73]
5,< 1,CN(C)CCOc1ccc(-c2nnc(-c3nc(-c4ccnc(C(C)(C)C#N)c4)cnc3N)o2)cc1 [Compound I-56]
6,20 to 100,CN(C)CCNc1ccc(-c2nnc(-c3nc(-c4ccnc(C(C)(C)C#N)c4)cnc3N)o2)c(F)c1 [Compound I-103]
7,< 1,CNCCNc1ccc(-c2nnc(-c3nc(-c4ccnc(C(C)(C)C#N)c4)cnc3N)o2)cc1 [Compound I-117]
8,< 1,"CC(C)(C#N)c1cc(-c2cnc(N)c(-c3cc(-c4ccc(O)cc4)no3)n2)ccn1 [Compound I-51, 2-[4-[5-amino-6-[3-(4-hydroxyphenyl)isoxazol-5-yl]pyrazin-2-yl]-2-pyridyl]-2-methyl-propanenitrile]"
9,< 1,CC(C)(C#N)c1cc(-c2cnc(N)c(-c3nnc(-c4ccc(F)cc4NCCN)o3)n2)ccn1 [Compound I-70]

# Continued, compound first:
row,Structure (SMILES),Ki [nM]
1,"N#CC1(c2cc(-c3cnc(N)c(-c4cc(-c5ccc(CN[C@H]6CCOC6)cc5)no4)n3)ccn2)CCCC1 [Compound I-36, 1-[4-[5-amino-6-[3-[4-[[[(3S)-tetrahydrofuran-3-yl]amino]methyl]phenyl]isoxazol-5-yl]pyrazin-2-yl]-2-pyridyl]cyclopentanecarbonitrile]",< 1
2,"CNCc1ccc(-c2cc(-c3nc(-c4ccnc(C(C)S(C)(=O)=O)c4)cnc3N)on2)cc1 (stereo not shown) [Compound I-15, 3-[3-[4-(methylaminomethyl)phenyl]isoxazol-5-yl]-5-[2-(1-methylsulfonylethyl)-4-pyridyl]pyrazin-2-amine]",< 1
3,"Cc1ccsc1-c1cc(-c2nc(-c3ccnc(C(C)(C)C#N)c3)cnc2N)on1 [Compound I-8, 2-[4-[5-amino-6-[3-(3-methyl-2-thienyl)isoxazol-5-yl]pyrazin-2-yl]-2-pyridyl]-2-methyl-propanenitrile]",< 1
4,"CC(C)(C#N)c1cc(-c2cnc(N)c(-c3cc(-c4ccc(CNC5CC5)cc4)no3)n2)ccn1 [Compound I-48, 2-[4-[5-amino-6-[3-[4-[(cyclopropylamino)methyl]phenyl]isoxazol-5-yl]pyrazin-2-yl]-2-pyridyl]-2-methyl-propanenitrile]",< 1
5,"CC(C)(C(=O)N1CCC1)c1cc(-c2cnc(N)c(-c3cc(-c4ccccc4)no3)n2)ccn1 [Compound I-47, 2-[4-[5-amino-6-(3-phenylisoxazol-5-yl)pyrazin-2-yl]-2-pyridyl]-1-(azetidin-1-yl)-2-methyl-propan-1-one]",5 to 20
6,"CNCc1ccc(-c2cc(-c3nc(-c4ccnc(C5(C#N)CCOCC5)c4)cnc3N)on2)cc1 [Compound I-9, 4-[4-[5-amino-6-[3-[4-(methylaminomethyl)phenyl]isoxazol-5-yl]pyrazin-2-yl]-2-pyridyl]tetrahydropyran-4-carbonitrile]",< 1
7,"CC(C)(C#N)c1cc(-c2cnc(N)c(-c3cc(-c4ccc(CNC5COC5)cc4)no3)n2)ccn1 [Compound I-18, 2-[4-[5-amino-6-[3-[4-[(oxetan-3-ylamino)methyl]phenyl]isoxazol-5-yl]pyrazin-2-yl]-2-pyridyl]-2-methyl-propanenitrile]",< 1
8,COc1ccccc1-c1nnc(-c2nc(-c3ccnc(C4(C#N)CCNCC4)c3)cnc2N)o1 [Compound I-133],< 1
9,"CC(C#N)c1cc(-c2cnc(N)c(-c3cc(-c4ccccc4)no3)n2)ccn1 (stereo not shown) [Compound I-50, 2-[4-[5-amino-6-(3-phenylisoxazol-5-yl)pyrazin-2-yl]-2-pyridyl]propanenitrile]",< 1

# Same assay, conditions: Ki(app); 5 nM full-length ATR, 10 μM [γ-33P]ATP, 800 μM target peptide, 25° C.
row,Structure (SMILES),ATR Ki
1,CC(C)(C#N)c1cc(-c2cnc(N)c(-c3nnc(-c4ccc(C5CNC5)cc4)o3)n2)ccn1 [Compound I-80],+++ (Compounds with a Ki value >5 nM but ≦1 nM are marked with “+++.”)
2,CC(C)(C#N)c1cc(-c2cnc(N)c(-c3nnc(-c4ccc(C5CNCCN5)cc4)o3)n2)ccn1 (stereo not shown) [Compound I-82],+++ (Compounds with a Ki value >5 nM but ≦1 nM are marked with “+++.”)
3,N#CC1(c2cc(-c3cnc(N)c(-c4nnc(-c5cccs5)o4)n3)ccn2)CCNCC1 [Compound I-101],+++ (Compounds with a Ki value >5 nM but ≦1 nM are marked with “+++.”)
4,"CC(C)(C(=O)NCCCN)c1cc(-c2cnc(N)c(-c3cc(-c4ccccc4)no3)n2)ccn1 [Compound I-40, 2-[4-[5-amino-6-(3-phenylisoxazol-5-yl)pyrazin-2-yl]-2-pyridyl]-N-(3-aminopropyl)-2-methyl-propanamide]",+++ (Compounds with a Ki value >5 nM but ≦1 nM are marked with “+++.”)

# Reference: patent US8877759B2, “Aminopyrazines as ATR kinase inhibitors” (Vertex Pharnaceuticals Incorporated, priority 2011, dated 2014)
